These are literature values, as cited in article PMC4139154 (Biochemistry, 2014).

One data set deals with nNOS. Particulars: read-out: Kd of imidazole for nNOS.
A further data set addresses eNOS. The settings on record: read-out: Kd of imidazole for eNOS.
The next data set has as its target iNOS. The settings on record: read-out: Kd of imidazole for iNOS.

As for `c1c[nH]cn1` [imidazole], the results for the Kd on nNOS, on eNOS and on iNOS were 160 µM, 150 µM and 42 µM, respectively.
